Measurements: patent publication US10239887B2, “Positive allosteric modulators of the muscarinic acetylcholine receptor M4” (Vanderbilt University, priority 2016, dated 2019)

Target: T1, human mAChR M4 (Homo sapiens, UniProt P08173)
T1 sequence (P08173 1-479): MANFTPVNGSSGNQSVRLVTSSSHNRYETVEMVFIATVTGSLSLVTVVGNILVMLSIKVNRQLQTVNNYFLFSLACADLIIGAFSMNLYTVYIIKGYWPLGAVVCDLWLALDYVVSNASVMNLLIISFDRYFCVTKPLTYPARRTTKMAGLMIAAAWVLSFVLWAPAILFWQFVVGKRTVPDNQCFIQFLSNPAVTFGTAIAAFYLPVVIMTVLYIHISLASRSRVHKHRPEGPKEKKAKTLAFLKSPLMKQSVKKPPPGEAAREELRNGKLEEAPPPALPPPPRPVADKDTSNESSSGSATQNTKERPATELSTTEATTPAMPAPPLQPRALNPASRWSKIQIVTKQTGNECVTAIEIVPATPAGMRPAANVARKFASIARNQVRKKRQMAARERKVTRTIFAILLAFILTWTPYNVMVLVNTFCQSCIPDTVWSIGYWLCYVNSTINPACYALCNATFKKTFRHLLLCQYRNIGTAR
Assay: mAChR M4 cell-based functional assay (calcium flux), human M4
Settings: for EC50: Human M4 EC50 (nM), calcium flux, PAM activity with EC20 acetylcholine; for Emax: % ACh maximum at 30 μM

Row | EC50 (Table 10) [nM] | Emax (Table 10) [%] | EC50 (Table 11) [nM] | Emax (Table 11) [%] | SMILES
1 | 4840 | 46.1 |  |  | Cc1nnc2oc3c(N4CC5(COC5)C4)ncnc3c2c1C [Compound 307, 3,4-dimethyl-8-(2-oxa-6-azaspiro[3.3]heptan-6-yl)pyrimido[4′,5′:4,5] furo[2,3-c]pyridazine]
2 | 9160 | 59.5 |  |  | Cc1nnc2oc3c(NCc4ccc(C(C)(C)O)nc4)ncnc3c2c1C [Compound 308, 2-[5-[[(3,4-dimethylpyrimido [4′,5′:4,5]furo[2,3-c]pyridazin-8-yl)amino]methyl]-2-pyridyl]propan-2-ol]
3 | 403 | 73.6 |  |  | COc1ccc(CNc2ncnc3c2oc2nnc(C)c(C)c23)cc1 [Compound 309, N-[(4-methoxyphenyl)methyl]-3,4-dimethyl-pyrimido [4′,5′:4,5]furo[2,3-c]pyridazin-8-amine]
4 | 845 | 53.2 |  |  | COc1cc(F)c(CNc2ncnc3c2oc2nnc(C)c(C)c23)c(F)c1 [Compound 310, N-[(2,6-difluoro-4-methoxy-phenyl)methyl]-3,4-dimethyl-pyrimido[4′,5′:4,5] furo[2,3-c]pyridazin-8-amine]
5 | 378 | 51 |  |  | COc1c(F)cc(CNc2ncnc3c2oc2nnc(C)c(C)c23)cc1F [Compound 311, N-[(3,5-difluoro-4-methoxy-phenyl)methyl]-3,4-dimethyl-pyrimido[4′,5′:4,5] furo[2,3-c]pyridazin-8-amine]
6 | 909 | 70.2 |  |  | Cc1nnc2oc3c(NCc4ccc(C(C)(O)C(F)(F)F)cc4)ncnc3c2c1C (stereo not shown) [Compound 312, 2-[4-[[(3,4-dimethylpyrimido [4′,5′:4,5]furo[2,3-c]pyridazin-8-yl)amino]methyl]phenyl]-1,1,1-trifluoro-propan-2-ol]
7 |  |  | 166 | 75.2 | Cc1nnc2sc3c(NCc4ccc(C(=O)NC5CC5)c(Cl)c4)ncnc3c2c1C [Compound 313, 2-chloro-N-cyclopropyl-4-[[(3,4-dimethylpyrimido[4′,5′:4,5]thieno[2,3-c]pyridazin-8-yl)amino]methyl]benzamide]
8 |  |  | 1830 | 71.5 | Cc1nnc2sc3c(NC4CN(c5ncc(Cl)cc5Cl)C4)ncnc3c2c1C [Compound 314, N-[1-(3,5-dichloro-2-pyridyl)azetidin-3-yl]-3,4-dimethyl-pyrimido [4′,5′:4,5]thieno[2,3-c] pyridazin-8-amine]
9 |  |  | 659 | 74.9 | Cc1nnc2sc3c(NC4CN(c5ncc(Cl)cc5F)C4)ncnc3c2c1C [Compound 315, N-[1-(5-chloro-3-fluoro-2-pyridyl)azetidin-3-yl]-3,4-dimethyl-pyrimido[4′,5′:4,5]thieno [2,3-c]pyridazin-8-amine]
10 |  |  | 216 | 83.8 | Cc1nnc2sc3c(NCc4ccc(C(=O)NC5CCC5)c(Cl)c4)ncnc3c2c1C [Compound 316, 2-chloro-N-cyclobutyl-4-[[(3,4-dimethylpyrimido [4′,5′:4,5]thieno[2,3-c]pyridazin-8-yl)amino]methyl]benzamide]
11 |  |  | 323 | 75.1 | Cc1nnc2sc3c(NCc4ccc(C(=O)NC5CCCC5)c(Cl)c4)ncnc3c2c1C [Compound 317, 2-chloro-N-cyclopentyl-4-[[(3,4-dimethylpyrimido [4′,5′:4,5]thieno[2,3-c]pyridazin-8-yl)amino]methyl]benzamide]
12 |  |  | 193 | 81.7 | Cc1nnc2sc3c(NCc4ccc(C(=O)NC(C)C)c(Cl)c4)ncnc3c2c1C [Compound 318, 2-chloro-4-[[(3,4-dimethylpyrimido[4′,5′:4,5]thieno[2,3-c]pyridazin-8-yl)amino]methyl]-N-isopropyl-benzamide]
13 |  |  | 544 | 75.6 | Cc1nnc2sc3c(NCc4ccc(C(=O)NC5CC5(C)C)c(Cl)c4)ncnc3c2c1C (stereo not shown) [Compound 319, 2-chloro-N-(2,2-dimethylcyclopropyl)-4-[[(3,4-dimethylpyrimido [4′,5′:4,5]thieno[2,3-c]pyridazin-8-yl)amino]methyl]benzamide]
14 |  |  | 532 | 81.1 | Cc1nnc2sc3c(NCc4ccc(C(=O)N[C@H](C)C(F)(F)F)c(Cl)c4)ncnc3c2c1C [Compound 320, 2-chloro-4-[[(3,4-dimethylpyrimido [4′,5′:4,5]thieno[2,3-c]pyridazin-8-yl)amino]methyl]-N-[(1R)-2,2,2-trifluoro-1-methyl-ethyl] benzamide]
15 |  |  | 102 | 80.6 | Cc1nnc2sc3c(NCc4ccc(C(=O)NC5CC(F)C5)c(Cl)c4)ncnc3c2c1C (stereo not shown) [Compound 321, 2-chloro-4-[[(3,4-dimethylpyrimido [4′,5′:4,5]thieno[2,3-c]pyridazin-8-yl)amino]methyl]-N-(3-fluorocyclobutyl) benzamide]
16 |  |  | 197 | 81.6 | Cc1nnc2sc3c(NCc4ccc(C(=O)NC5CC(F)(F)C5)c(Cl)c4)ncnc3c2c1C [Compound 322, 2-chloro-N-(3,3-difluorocyclobutyl)-4-[[(3,4-dimethylpyrimido [4′,5′:4,5]thieno[2,3-c]pyridazin-8-yl)amino]methyl]benzamide]
17 |  |  | 449 | 76.3 | Cc1nnc2sc3c(NCc4ccc(C(=O)NC(C)C5(CO)CC5)c(Cl)c4)ncnc3c2c1C (stereo not shown) [Compound 323, 2-chloro-4-[[(3,4-dimethylpyrimido [4′,5′:4,5]thieno[2,3-c]pyridazin-8-yl)amino]methyl]-N-[1-[1-(hydroxymethyl)cyclopropyl]ethyl]benzamide]
18 |  |  | 164 | 84 | COCCNC(=O)c1ccc(CNc2ncnc3c2sc2nnc(C)c(C)c23)cc1Cl [Compound 324, 2-chloro-4-[[(3,4-dimethylpyrimido [4′,5′:4,5]thieno[2,3-c]pyridazin-8-yl)amino]methyl]-N-(2-methoxyethyl) benzamide]
19 |  |  | 62.2 | 78.8 | CNC(=O)c1ccc(CNc2ncnc3c2sc2nnc(C)c(C)c23)cc1Cl [Compound 325, 2-chloro-4-[[(3,4-dimethylpyrimido [4′,5′:4,5]thieno[2,3-c]pyridazin-8-yl)amino]methyl]-N-methyl-benzamide]
20 |  |  | 1070 | 64.9 | Cc1nnc2sc3c(NCc4ccc(-c5nccs5)cc4)ncnc3c2c1C [Compound 326, 3,4-dimethyl-N-[(4-thiazol-2-ylphenyl)methyl]pyrimido[4′,5′:4,5] thieno[2,3-c]pyridazin-8-amine]
21 |  |  | 1770 | 64.6 | Cc1nnc2sc3c(NCc4cccc(-c5ncccn5)c4)ncnc3c2c1C [Compound 327, 3,4-dimethyl-N-[(3-pyrimidin-2-ylphenyl)methyl]pyrimido [4′,5′:4,5]thieno[2,3-c] pyridazin-8-amine]
22 |  |  | 1970 | 63.6 | Cc1nnc2sc3c(NCc4cccc(-n5cccn5)c4)ncnc3c2c1C [Compound 328, 3,4-dimethyl-N-[(3-pyrazol-1-ylphenyl)methyl]pyrimido [4′,5′:4,5]thieno[2,3-c] pyridazin-8-amine]
23 |  |  | 107 | 76.6 | Cc1nnc2sc3c(N4CC[C@H](Oc5ccnc(Cl)c5)C4)ncnc3c2c1C [Compound 329, 8-[(3S)-3-[(2-chloro-4-pyridyl)oxy]pyrrolidin-1-yl]-3,4-dimethyl-pyrimido [4′,5′:4,5]thieno[2,3-c] pyridazine]
24 |  |  | 111 | 74.4 | Cc1cc(O[C@H]2CCN(c3ncnc4c3sc3nnc(C)c(C)c34)C2)ccn1 [Compound 330, 3,4-dimethyl-8-[(3S)-3-[(2-methyl-4-pyridyl)oxy]pyrrolidin-1-yl]pyrimido [4′,5′:4,5]thieno[2,3-c] pyridazine]
25 |  |  | 142 | 80.6 | Cc1nnc2sc3c(N4CC[C@H](Oc5ccnc(C(F)(F)F)c5)C4)ncnc3c2c1C [Compound 331, 3,4-dimethyl-8-[(3S)-3-[[2-(trifluoromethyl)-4-pyridyl]oxy]pyrrolidin-1-yl]pyrimido [4′,5′:4,5]thieno[2,3-c] pyridazine]
26 |  |  | 129 | 80.5 | Cc1nnc2sc3c(N4CC[C@H](Oc5cccnc5)C4)ncnc3c2c1C [Compound 332, 3,4-dimethyl-8-[(3S)-3-(3-pyridyloxy)pyrrolidin-1-yl] pyrimido[4′,5′:4,5]thieno [2,3-c]pyridazine]
27 |  |  | 1810 | 39.1 | CNC(=O)c1cc(CN(C)c2ncnc3c2sc2nnc(C)c(C)c23)ccc1F [Compound 333, 5-[[(3,4-dimethylpyrimido [4′,5′:4,5]thieno[2,3-c]pyridazin-8-yl)(methyl)amino]methyl]-2-fluoro-N-methyl-benzamide]
28 |  |  |  | 90.6 | Cc1cc(CNc2ncnc3c2sc2nnc(C)c(C)c23)ccc1C(C)(C)O [Compound 334, 2-[4-[[(3,4-dimethylpyrimido [4′,5′:4,5]thieno[2,3-c]pyridazin-8-yl)amino]methyl]-2-methyl-phenyl]propan-2-ol]
29 |  |  |  | 71.1 | Cc1cc(C(C)(C)O)ccc1CNc1ncnc2c1sc1nnc(C)c(C)c12 [Compound 335, 2-[4-[[(3,4-dimethylpyrimido [4′,5′:4,5]thieno[2,3-c]pyridazin-8-yl)amino]methyl]-3-methyl-phenyl]propan-2-ol]
30 |  |  | 105 | 76.9 | Cc1nnc2sc3c(N4CC[C@@H](Oc5ccnc(Cl)c5)C4)ncnc3c2c1C [Compound 336, 8-[(3R)-3-[(2-chloro-4-pyridyl)oxy]pyrrolidin-1-yl]-3,4-dimethyl-pyrimido [4′,5′:4,5]thieno[2,3-c] pyridazine]
